Test results taken from article PMC7397249, “Properly Substituted Cyclic Bis-(2-bromobenzylidene) Compounds Behaved as Dual p300/CARM1 Inhibitors and Induced Apoptosis in Cancer Cells” (Molecules, 2020).
One block for each compound: values may come before it.

Columns and labels:
CARM1 [1] = molecular target: T1, CARM1 (Homo sapiens, UniProt Q86X55); parameters: method as in PMID 21612300; conditions: cited from earlier work
T1 sequence (Q86X55 1-608): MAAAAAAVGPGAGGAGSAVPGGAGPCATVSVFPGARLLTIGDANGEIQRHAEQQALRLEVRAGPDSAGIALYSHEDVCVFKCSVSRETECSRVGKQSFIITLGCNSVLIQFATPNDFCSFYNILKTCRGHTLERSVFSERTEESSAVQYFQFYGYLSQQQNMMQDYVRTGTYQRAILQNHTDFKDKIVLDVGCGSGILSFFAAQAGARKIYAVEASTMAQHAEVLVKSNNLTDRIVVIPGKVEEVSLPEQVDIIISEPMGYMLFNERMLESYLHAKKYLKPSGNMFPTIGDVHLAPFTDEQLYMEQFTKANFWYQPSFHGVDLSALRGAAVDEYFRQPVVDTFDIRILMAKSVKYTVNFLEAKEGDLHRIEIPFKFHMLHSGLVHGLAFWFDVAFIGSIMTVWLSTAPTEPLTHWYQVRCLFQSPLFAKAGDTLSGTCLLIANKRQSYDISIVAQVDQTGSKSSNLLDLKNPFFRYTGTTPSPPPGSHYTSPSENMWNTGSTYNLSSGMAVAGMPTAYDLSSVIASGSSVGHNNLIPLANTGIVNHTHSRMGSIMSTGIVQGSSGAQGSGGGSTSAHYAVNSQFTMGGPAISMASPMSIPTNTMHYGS

p300 HAT = conditions: cited from earlier work
PRMT1 = test system: PRMT1; parameters: method as in PMID 21612300; conditions: cited from earlier work
SET7 = test system: SET7; parameters: method as in PMID 21612300; conditions: cited from earlier work
EZH2 = conditions: cited from earlier work
SIRT2 = molecular target: T2, SIRT2 (Homo sapiens, UniProt Q8IXJ6); test: Modified Fluor de Lys fluorescence-based assay, SIRT2; assay type: biochemical; conditions: from 200 μM; p53 379-382 AMC substrate, NAD+
T2 construct: host or cells: E. coli
Method: (§1) The newly synthesized compounds 4a–n were tested to determine their effects against acetylation and methylation epigenetic targets. First, 4a–n were screened in vitro against the two HAT enzymes p300 and PCAF. […] To determine the activity against SIRT1 and -2, 4a–n were tested starting from 200 μM solutions using a modified Fluor de Lys fluorescence-based assay with amino acids 379–382 (Arg-His-Lys-Lys(Ac)) of human p53 conjugated with aminomethylcoumarin as substrate and NAD^+ as co-substrate. […] Furthermore, 4a–n were tested against a human five-membered Polycomb repressive complex 2 (PRC2) containing EZH2, embryonic ectoderm development (EED), suppressor of zeste 12 (SUZ12), RbAp48, and adipocyte enhancer-binding protein (AEBP2), to assess their capability to inhibit the catalytic unit EZH2.
(§2) The SIRT inhibition assay was performed using human recombinant SIRT1 and SIRT2 produced in E. coli. Compounds were tested using a modified Fluor de Lys fluorescence-based assay kit based on the method described in the BioMol product sheet (AK-555, AK-556, Milan, Italy). […] The second stage is initiated by the addition of the Developer II (KI176), including nicotinamide (NAM), nicotinamide that stops the SIRT1/2 activity, and the fluorescent signal is produced. The fluorescence was measured on a fluorometric reader (Infinite 200 TECAN, Männedorf, Switzerland) with excitation set at 360 nm and emission detection set at 460 nm.

PRC2/EZH2 = PRC2/EZH2 (Homo sapiens, UniProt Q15910); test: EZH2/PRC2 assay (core histone, 3H-SAM); assay type: biochemical; conditions: 10-dose, duplicate, from 400 μM
Method: as §1
The EZH2 substrate (0.05 mg/mL core histone) was added in the freshly prepared reaction buffer (50 mM Tris-HCl (pH 8.0), 50 mM NaCl, 1 mM EDTA, 1 mM DTT, 1 mM PMSF, 1% DMSO). The PRC2 complex (complex of human EZH2, human EED, human SUZ12, human AEBP2, and human RbAp48) was delivered into the substrate solution and the mixture was mixed gently. Afterwards, the tested compounds dissolved in DMSO were delivered into the enzyme/substrate reaction mixture by using Acoustic Technology (Echo 550, LabCyte Inc. Sunnyvale, CA, USA) in nanoliter range, and ^3H-SAM was added into the reaction mixture to initiate the reaction. The reaction mixture was incubated for 1 h at 30 °C and then it was delivered to filter-paper for detection. The data were analyzed using Excel and GraphPad Prism software for IC50 curve fits. The experiments were performed in duplicate.

SIRT1 = molecular target: T3, SIRT1 (Homo sapiens, UniProt Q96EB6); test: Modified Fluor de Lys fluorescence-based assay, SIRT1; assay type: biochemical; conditions: from 200 μM; p53 379-382 AMC substrate, NAD+
T3 construct: host or cells: E. coli
Method: as §1, §2

CARM1 [2] = molecular target: T1, CARM1; test: CARM1 assay (histone H3, 3H-SAM); assay type: biochemical
Method: Histone H3 (5 μM) was added in freshly prepared reaction buffer (50 mM Tris-HCl (pH 8.5), 5 mM MgCl2, 50 mM NaCl, 0.01% Brij35, 1 mM DTT, 1% DMSO). CARM1 was delivered into the substrate solution and the mixture was mixed gently. Afterwards, the tested compounds dissolved in DMSO were delivered into the enzyme/substrate reaction mixture by using Acoustic Technology (Echo 550, LabCyte Inc. Sunnyvale, CA) in nanoliter range, and 1 µM ^3H-SAM was also added into the reaction mixture to initiate the reaction. The reaction mixture was incubated for 1 h at 30 °C and then it was delivered to filter-paper for detection. The data were analyzed using Excel and GraphPad Prism software for IC50 curve fits. The experiments were performed in triplicate.

MCF-7 cells = test: Cell cycle and apoptosis (sub-G1) analysis by FACS in MCF-7 cells; assay type: cell-based, human; conditions: 5 μM, 30 h
Method: (§3) Compounds 4a–n were tested at 5 μM for 30 h in NB4 […] and U937 AML cells among hematological cancers, and in MCF-7 breast cancer and SH-SY5Y neuroblastoma cells among solid cancers, to determine their effects in cell cycle and apoptosis induction.
(§4) In the same cell lines, the induction of apoptosis has been evaluated through the percentage of the sub-G1 peaks.
(§5) For colorimetric exclusion, the cells (2 × 10^5 cells/mL) were plated in multiwells in triplicate. After stimulations at different times and concentrations, cells were diluted in the ratio 1:1 in Trypan Blue (Sigma) and counted with an optical microscope. For cell cycle analyses, cells were plated (2 × 10^5 cells/mL) and were harvested, centrifuged at 1200 rpm for 5 min and resuspended in 500 μL of a hypotonic solution containing 1× PBS, Sodium Citrate 0.1%, 0.1% NP-40, RNAase A and […] Propidium Iodide (PI). After 30 min at room temperature (RT) in the dark, samples were acquired by FACS-Calibur (BD Bioscences, San Jose, CA, USA) using CellQuest software (BD Biosciences). The percentage in different phases of the cell cycle was determined by ModFit LT V3 software (Verity). All experiments were performed in triplicate. Cell death was measured as percentage of cells in sub-G1 phase as in [30].

p300 [3] = molecular target: T4, p300 (Homo sapiens, UniProt Q09472); test: HotSpot HAT activity assay, p300; assay type: biochemical; conditions: 10-dose, triplicate, from 200 μM; histone H3, [acetyl-3H]-acetyl-CoA
T4 construct: p300 (aa 1284–1673, 30 nM); purchased Reaction Biology Corporation
T4 sequence (Q09472 1284-1673): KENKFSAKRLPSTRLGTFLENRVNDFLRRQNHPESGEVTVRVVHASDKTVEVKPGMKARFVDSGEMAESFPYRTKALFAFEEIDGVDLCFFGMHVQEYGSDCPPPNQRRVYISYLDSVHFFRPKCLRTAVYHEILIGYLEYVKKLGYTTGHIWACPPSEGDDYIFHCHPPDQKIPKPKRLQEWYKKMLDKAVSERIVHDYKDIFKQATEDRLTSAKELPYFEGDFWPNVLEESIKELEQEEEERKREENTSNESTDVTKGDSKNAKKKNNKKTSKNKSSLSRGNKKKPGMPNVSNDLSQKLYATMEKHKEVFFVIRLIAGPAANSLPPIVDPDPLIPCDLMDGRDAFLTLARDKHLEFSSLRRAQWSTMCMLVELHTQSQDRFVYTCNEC
Method: as §1
(§6) The effect of tested derivatives on the catalytic activity of p300 and PCAF was determined in a HotSpot HAT activity assay by Reaction Biology Corporation (Malvern, PA, USA) according to the company’s standard operating procedure. In brief, the recombinant catalytic domains of PCAF (aa 492–658, 250 nM) or p300 (aa 1284–1673, 30 nM) were incubated with histone H3 as substrate (5 µM) and [Acetyl-^3H]-Acetyl Coenzyme A (3 µM) as an acetyl donor in reaction buffer (50 mM Tris-HCl (pH 8.0), 50 mM NaCl, 0.1 mM EDTA, 1 mM DTT, 1 mM PMSF, 1% DMSO) for 1 h at 30 °C in the presence or absence of a dose titration of the compounds. The reaction mixture was delivered to filter-paper for detection. IC50 values were analyzed using Excel and GraphPad Prism 6.0 software (GraphPad Software Inc., San Diego, CA, USA). The experiments for p300 were performed in triplicate.

PCAF = molecular target: T5, PCAF (Homo sapiens, UniProt Q92831); test: HotSpot HAT activity assay, PCAF; assay type: biochemical; conditions: 10-dose, from 200 μM; histone H3, [acetyl-3H]-acetyl-CoA
T5 construct: PCAF (aa 492–658, 250 nM); purchased Reaction Biology Corporation
Method: as §1, §6

NB4 cells = test: Cell cycle and apoptosis (sub-G1) analysis by FACS in NB4 cells; assay type: cell-based, human; conditions: 5 μM, 30 h
Method: as §3, §4, §5

p300 [4] = test: Western blot of acetylation marks (p300 inhibition) in MCF-7 cells; assay type: cell-based, human; conditions: 5 μM, 30 h
Method: (§7) In MCF-7 cells, the levels of acetyl-H3, acetyl-H4, H3K27me3, and H3R17me2 were detected by western blot analyses as functional tests for p300 (acH3 and acH4), EZH2 (H3K27me3) and CARM1 (H3R17me2) inhibition in cells, respectively (Figure 5).
(§8) The procedures were performed as described in [30, 31]. Primary antibodies used were: Ac-H3 (Millipore, Milan, Italy); Ac-H4 (Millipore, Milan, Italy); Ac-H3K9-14 (Diagenode, Ougrée, Belgium); Ac-α-tubulin (Sigma-Aldrich), H3K27me3 (Diagenode); H3R17me2 (Diagenode); EZH2 (Abcam, Cambridge, UK). H3 (Sigma-Aldrich), H4 (Abcam), GAPDH (Sigma) and ERKs (Santa Cruz, Biotechnology, TX, USA) were used to normalize the total protein extracts (see also Supplementary Material).

CARM1 [5] = test: Western blot of H3R17me2 (CARM1) in MCF-7 cells; assay type: cell-based, human; conditions: 5 μM, 30 h
Method: as §7, §8

T3 sequence (Q96EB6 whole entry): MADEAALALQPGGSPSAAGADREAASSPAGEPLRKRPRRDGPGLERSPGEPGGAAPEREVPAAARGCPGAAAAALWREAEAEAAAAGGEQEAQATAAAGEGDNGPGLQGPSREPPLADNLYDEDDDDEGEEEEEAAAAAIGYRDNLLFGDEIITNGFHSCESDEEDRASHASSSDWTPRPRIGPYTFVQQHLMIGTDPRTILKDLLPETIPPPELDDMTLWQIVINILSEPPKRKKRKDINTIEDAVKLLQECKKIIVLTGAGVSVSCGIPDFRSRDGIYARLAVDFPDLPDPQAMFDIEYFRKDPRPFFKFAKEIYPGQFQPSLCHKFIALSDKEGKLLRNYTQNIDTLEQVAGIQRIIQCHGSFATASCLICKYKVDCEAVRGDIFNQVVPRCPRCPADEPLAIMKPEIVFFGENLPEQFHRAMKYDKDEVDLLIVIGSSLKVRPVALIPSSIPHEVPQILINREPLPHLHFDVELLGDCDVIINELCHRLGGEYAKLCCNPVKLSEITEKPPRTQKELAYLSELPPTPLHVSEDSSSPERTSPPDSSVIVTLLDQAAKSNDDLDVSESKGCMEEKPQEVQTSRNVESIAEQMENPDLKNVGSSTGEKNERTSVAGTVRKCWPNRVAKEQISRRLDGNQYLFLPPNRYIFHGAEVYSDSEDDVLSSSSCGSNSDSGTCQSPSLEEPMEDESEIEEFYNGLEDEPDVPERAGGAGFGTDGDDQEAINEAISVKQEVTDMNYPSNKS
T5 sequence (Q92831 492-658): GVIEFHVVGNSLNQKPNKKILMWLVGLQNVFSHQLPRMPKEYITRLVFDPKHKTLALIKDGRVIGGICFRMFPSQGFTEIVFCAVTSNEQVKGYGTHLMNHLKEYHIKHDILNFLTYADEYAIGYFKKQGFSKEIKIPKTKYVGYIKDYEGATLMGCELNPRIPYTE
Chain of PRC2/EZH2 (Q15022 whole entry): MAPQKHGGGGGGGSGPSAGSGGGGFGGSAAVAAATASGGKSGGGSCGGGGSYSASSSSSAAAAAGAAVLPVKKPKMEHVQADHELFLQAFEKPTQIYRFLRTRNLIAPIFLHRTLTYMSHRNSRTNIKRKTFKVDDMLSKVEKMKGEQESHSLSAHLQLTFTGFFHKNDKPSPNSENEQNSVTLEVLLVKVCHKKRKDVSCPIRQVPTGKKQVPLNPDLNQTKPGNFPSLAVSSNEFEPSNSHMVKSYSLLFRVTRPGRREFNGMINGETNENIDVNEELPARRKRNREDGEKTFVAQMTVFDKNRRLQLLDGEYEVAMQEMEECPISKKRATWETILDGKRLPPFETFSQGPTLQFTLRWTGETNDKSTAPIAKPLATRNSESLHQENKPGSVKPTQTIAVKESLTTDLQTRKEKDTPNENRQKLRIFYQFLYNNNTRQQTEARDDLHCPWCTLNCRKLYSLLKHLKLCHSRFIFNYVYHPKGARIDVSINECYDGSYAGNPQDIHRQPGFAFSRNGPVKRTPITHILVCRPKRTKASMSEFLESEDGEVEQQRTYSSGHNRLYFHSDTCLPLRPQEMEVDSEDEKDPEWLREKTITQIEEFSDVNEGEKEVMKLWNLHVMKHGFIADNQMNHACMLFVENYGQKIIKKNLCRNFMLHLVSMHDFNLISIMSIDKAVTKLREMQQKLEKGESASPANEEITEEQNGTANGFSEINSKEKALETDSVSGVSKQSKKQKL
Chain of PRC2/EZH2 (Q09028 whole entry, further chain): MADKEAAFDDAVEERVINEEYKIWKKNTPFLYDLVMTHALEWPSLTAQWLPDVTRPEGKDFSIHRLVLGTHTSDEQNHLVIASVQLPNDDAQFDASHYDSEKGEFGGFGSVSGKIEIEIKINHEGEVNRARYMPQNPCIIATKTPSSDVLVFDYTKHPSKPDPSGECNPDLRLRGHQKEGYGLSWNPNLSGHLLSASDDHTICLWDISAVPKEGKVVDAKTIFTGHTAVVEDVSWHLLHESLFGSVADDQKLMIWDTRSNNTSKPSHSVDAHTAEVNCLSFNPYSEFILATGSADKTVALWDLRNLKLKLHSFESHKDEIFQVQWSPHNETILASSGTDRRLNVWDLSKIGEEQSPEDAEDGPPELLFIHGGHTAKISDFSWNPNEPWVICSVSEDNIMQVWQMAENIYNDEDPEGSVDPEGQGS
Chain of PRC2/EZH2 (Q6ZN18 whole entry, further chain): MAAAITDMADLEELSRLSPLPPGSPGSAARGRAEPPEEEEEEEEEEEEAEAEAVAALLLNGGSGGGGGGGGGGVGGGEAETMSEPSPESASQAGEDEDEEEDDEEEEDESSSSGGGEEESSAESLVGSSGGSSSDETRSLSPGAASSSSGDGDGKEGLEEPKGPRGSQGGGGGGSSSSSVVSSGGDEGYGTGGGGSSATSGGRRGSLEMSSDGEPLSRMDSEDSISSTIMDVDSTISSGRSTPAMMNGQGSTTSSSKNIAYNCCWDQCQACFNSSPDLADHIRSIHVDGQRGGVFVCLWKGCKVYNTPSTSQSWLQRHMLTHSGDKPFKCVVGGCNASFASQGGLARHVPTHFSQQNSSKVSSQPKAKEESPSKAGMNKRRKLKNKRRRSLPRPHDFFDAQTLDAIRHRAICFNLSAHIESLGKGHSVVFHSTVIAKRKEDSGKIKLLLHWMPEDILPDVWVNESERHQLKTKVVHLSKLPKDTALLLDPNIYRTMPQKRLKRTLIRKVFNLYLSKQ
Chain of PRC2/EZH2 (Q15910 whole entry): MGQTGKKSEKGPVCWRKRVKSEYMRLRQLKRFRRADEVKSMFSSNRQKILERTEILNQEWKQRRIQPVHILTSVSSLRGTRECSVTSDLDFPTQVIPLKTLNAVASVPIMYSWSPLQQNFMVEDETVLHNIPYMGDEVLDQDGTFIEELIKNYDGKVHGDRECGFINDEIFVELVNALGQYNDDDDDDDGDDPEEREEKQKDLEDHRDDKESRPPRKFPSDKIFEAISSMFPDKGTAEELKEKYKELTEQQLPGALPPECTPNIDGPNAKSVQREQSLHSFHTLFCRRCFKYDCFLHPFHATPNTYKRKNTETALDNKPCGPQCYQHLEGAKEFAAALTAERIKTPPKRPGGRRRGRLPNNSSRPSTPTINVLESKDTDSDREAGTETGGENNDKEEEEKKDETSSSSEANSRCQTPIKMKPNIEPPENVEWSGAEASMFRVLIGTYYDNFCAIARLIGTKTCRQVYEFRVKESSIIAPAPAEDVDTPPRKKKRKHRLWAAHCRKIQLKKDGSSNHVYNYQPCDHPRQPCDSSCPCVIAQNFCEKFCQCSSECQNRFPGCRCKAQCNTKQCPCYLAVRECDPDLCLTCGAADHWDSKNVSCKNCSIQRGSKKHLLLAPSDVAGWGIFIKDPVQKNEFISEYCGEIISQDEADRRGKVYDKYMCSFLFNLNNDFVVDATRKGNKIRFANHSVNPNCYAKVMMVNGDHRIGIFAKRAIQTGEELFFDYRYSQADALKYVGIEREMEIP
Chain of PRC2/EZH2 (O75530 whole entry, further chain): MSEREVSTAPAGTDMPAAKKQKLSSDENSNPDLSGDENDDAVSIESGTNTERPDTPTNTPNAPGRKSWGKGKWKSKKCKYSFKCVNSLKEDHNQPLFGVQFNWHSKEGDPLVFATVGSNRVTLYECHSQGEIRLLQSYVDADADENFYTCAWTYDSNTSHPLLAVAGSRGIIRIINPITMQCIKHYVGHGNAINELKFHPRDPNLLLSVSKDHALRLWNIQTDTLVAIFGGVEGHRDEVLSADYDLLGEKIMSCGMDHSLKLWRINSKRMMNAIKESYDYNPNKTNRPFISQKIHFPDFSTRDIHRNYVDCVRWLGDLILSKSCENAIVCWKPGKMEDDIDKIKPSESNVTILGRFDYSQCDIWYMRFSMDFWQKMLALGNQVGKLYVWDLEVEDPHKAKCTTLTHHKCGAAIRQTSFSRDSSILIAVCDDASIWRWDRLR
T2 sequence (Q8IXJ6 whole entry): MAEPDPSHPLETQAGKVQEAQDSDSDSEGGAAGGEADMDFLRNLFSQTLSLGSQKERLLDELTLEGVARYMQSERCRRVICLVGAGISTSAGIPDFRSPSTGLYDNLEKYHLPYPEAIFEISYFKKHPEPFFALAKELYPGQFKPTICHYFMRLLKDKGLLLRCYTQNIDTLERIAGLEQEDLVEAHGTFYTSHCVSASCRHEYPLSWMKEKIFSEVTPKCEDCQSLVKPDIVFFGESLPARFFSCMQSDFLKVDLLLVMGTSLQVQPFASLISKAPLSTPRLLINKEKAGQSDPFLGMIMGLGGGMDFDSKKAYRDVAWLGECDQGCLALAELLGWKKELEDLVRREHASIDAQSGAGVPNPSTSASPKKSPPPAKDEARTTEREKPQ

Compound: O=C1/C(=C/c2ccc(O)c(Br)c2)CN(Cc2ccccc2)C/C1=C\c1ccc(O)c(Br)c1 [Compound 2]
CARM1 inhibition (active/inactive) (CARM1 [1]): active
p300 HAT inhibition (active/inactive) (p300 HAT): inactive
PRMT1 inhibition (active/inactive) (PRMT1): inactive
SET7 inhibition (active/inactive) (SET7): inactive
EZH2 inhibition (active/inactive) (EZH2; ref unpublished results): active

Compound: O=C1/C(=C/c2cccc(Br)c2)CN(Cc2ccccc2)C/C1=C\c1cccc(Br)c1 [Compound 3, 1-benzyl-3,5-bis((E)-3-bromobenzylidene)piperidin-4-one]
p300 inhibition (in words) (p300 HAT): dual p300/EZH2 inhibitor
EZH2 inhibition (in words) (EZH2): dual p300/EZH2 inhibitor

Compound: O=C1/C(=C/c2ccccc2Br)CCC/C1=C\c1ccccc1Br [Compound 4a, 2,6-bis((E)-2-bromobenzylidene)cyclohexan-1-one]
IC50 (SIRT2): > 200 µM
IC50 (PRC2/EZH2): 117 ± 6 µM
IC50 (SIRT1): > 200 µM
IC50 (CARM1 [2]): 16.8 ± 3.4 µM
cell cycle: block in G1/S phase with almost total absence of cells in the G2/M phase (MCF-7 cells): almost total absence of cells
IC50 (p300 [3]): 1.38 ± 0.24 µM
IC50 (PCAF): > 200 µM

IC50 (SIRT2): > 200 µM
IC50 (SIRT1): > 200 µM
IC50 (CARM1 [2]): 23.3 ± 0.5 µM
IC50 (p300 [3]): 2.56 ± 0.23 µM
IC50 (PCAF): > 200 µM
Compound: O=C1/C(=C/c2ccccc2Br)COC/C1=C\c1ccccc1Br [Compound 4b, 3,5-bis((E)-2-bromobenzylidene)tetrahydro-4H-pyran-4-one]

Compound: O=C1/C(=C/c2ccccc2Br)CNC/C1=C\c1ccccc1Br [Compound 4c, 3,5-bis((E)-2-bromobenzylidene)piperidin-4-one]
IC50 (SIRT2): > 200 µM
IC50 (SIRT1): > 200 µM
IC50 (CARM1 [2]): 44.8 ± 6 µM
cell cycle: block in G1/S phase with almost total absence of cells in the G2/M phase (MCF-7 cells): almost total absence of cells
IC50 (p300 [3]): 23.2 ± 0.51 µM
IC50 (PCAF): > 200 µM

Compound: CN1C/C(=C\c2ccccc2Br)C(=O)/C(=C/c2ccccc2Br)C1 [Compound 4d, 3,5-bis((E)-2-bromobenzylidene)-1-methylpiperidin-4-one]
IC50 (SIRT2): > 200 µM
induction of apoptosis, % sub-G1 peaks (NB4 cells): 30 to 40%
IC50 (PRC2/EZH2): 46.7 ± 1.1 µM
IC50 (SIRT1): > 200 µM
IC50 (CARM1 [2]): 3.24 ± 1.22 µM
cell cycle: block in G1/S phase with almost total absence of cells in the G2/M phase (MCF-7 cells): almost total absence of cells
IC50 (p300 [3]): 2.66 ± 0.15 µM
IC50 (PCAF): > 200 µM

Compound: O=C1/C(=C/c2ccccc2Br)CN(CCC(=O)c2ccccc2)C/C1=C\c1ccccc1Br [Compound 4i, 3,5-Bis((E)-2-bromobenzylidene)-1-(3-oxo-3-phenylpropyl)piperidin-4-one]
IC50 (SIRT2): > 200 µM
IC50 (PRC2/EZH2): 60.6 ± 10.5 µM
IC50 (SIRT1): > 200 µM
IC50 (CARM1 [2]): 6.96 ± 0.9 µM
levels of acetyl-H4 (p300 [4]): decrease of the acetylation levels
levels of acetyl-α-tubulin (p300 [4]): decrease of the acetylation levels
levels of H3R17me2 (CARM1 [5]): most effective
melting point: 95 to 97 °C
IC50 (p300 [3]): 1.57 ± 0.72 µM
IC50 (PCAF): > 200 µM

IC50 (PCAF): 40 ± 10.9 µM
Compound: CCCCCCCCCCCCCCCc1cccc(O)c1C(=O)O [anacardic acid, reference compound]
